Legend:
Assay in all cases: biochemical
Set-up in all cases: KINOMEscan active-site competition binding panel (468 kinase assays), per cent of control at 1000 nM
Conditions in all cases: KINOMEscan per cent of control (binding competition); read-out: Percent Control
[1] = target: T1, ABL1(F317L)-phosphorylated (Homo sapiens, UniProt P00519, F317L)
T1 construct: phosphorylated
Source text: (§1) Figure S7 / Percent Control

CAMK2G = CAMK2G (Homo sapiens, UniProt Q13555)
Source text: as §1

CAMKK2 = CAMKK2 (Homo sapiens, UniProt Q96RR4)
Source text: as §1

DAPK1 = DAPK1 (Homo sapiens, UniProt P53355)
Source text: as §1

[2] = target: EGFR(L747-S752del, P753S) (Homo sapiens, UniProt P00533, DEL747-752/P753S)
Source text: as §1

EPHA1 = EPHA1 (Homo sapiens, UniProt P21709)
Chain of EPHA1 (P21709 whole entry): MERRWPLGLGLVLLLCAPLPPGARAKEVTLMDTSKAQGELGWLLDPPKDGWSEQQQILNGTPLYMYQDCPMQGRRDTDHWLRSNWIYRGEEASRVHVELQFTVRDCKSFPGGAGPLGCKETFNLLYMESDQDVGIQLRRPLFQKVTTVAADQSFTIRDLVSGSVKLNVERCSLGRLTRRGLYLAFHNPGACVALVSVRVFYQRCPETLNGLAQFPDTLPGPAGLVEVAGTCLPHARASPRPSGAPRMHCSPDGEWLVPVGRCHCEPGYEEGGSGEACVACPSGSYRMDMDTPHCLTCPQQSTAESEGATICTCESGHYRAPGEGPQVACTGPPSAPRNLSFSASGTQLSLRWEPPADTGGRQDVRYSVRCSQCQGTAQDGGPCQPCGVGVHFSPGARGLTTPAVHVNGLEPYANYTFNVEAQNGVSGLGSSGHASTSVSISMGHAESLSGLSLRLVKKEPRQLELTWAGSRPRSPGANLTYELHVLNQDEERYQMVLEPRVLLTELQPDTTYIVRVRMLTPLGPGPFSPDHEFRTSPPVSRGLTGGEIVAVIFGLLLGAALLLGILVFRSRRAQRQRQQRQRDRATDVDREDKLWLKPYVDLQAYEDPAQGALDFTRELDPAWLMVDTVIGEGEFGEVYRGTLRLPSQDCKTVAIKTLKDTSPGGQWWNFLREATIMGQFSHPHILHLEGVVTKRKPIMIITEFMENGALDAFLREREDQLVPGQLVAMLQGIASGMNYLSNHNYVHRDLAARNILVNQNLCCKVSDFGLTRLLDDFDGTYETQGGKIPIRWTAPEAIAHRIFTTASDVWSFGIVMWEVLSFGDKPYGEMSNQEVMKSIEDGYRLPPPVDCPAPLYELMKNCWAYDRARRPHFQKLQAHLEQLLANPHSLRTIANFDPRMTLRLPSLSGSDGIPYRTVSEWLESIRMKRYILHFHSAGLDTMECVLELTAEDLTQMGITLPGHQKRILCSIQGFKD
Source text: as §1

EPHB6 = EPHB6 (Homo sapiens, UniProt O15197)
Chain of EPHB6 (O15197 whole entry): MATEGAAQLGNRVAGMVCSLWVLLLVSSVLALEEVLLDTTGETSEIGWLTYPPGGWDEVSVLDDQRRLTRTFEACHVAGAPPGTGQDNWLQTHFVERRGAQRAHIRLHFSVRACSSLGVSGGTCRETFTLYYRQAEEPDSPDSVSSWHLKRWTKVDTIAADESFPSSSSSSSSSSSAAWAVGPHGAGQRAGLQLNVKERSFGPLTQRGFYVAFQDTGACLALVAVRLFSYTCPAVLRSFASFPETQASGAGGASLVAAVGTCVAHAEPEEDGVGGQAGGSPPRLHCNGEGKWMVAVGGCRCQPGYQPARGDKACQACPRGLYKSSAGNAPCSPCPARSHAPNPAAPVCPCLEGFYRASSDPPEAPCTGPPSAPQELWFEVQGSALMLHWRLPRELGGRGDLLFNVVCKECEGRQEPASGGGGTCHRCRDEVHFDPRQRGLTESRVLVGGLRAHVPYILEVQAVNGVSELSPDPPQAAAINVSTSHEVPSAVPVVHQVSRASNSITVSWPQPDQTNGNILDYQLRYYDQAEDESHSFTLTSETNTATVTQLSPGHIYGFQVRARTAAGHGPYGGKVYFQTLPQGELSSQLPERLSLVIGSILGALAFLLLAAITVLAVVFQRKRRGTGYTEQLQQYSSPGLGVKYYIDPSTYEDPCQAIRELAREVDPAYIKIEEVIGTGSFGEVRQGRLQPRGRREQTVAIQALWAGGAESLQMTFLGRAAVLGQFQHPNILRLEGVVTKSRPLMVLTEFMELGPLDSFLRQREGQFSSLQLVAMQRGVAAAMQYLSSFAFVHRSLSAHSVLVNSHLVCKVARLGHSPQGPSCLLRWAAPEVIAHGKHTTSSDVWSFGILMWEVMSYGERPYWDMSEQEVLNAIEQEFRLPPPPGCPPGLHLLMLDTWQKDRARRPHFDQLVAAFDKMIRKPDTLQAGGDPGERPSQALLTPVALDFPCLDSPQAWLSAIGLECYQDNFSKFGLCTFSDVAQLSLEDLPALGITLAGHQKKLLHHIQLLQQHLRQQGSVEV
Source text: as §1

FLT1 = FLT1 (Homo sapiens, UniProt P17948)
Source text: as §1

IRAK1 = IRAK1 (Homo sapiens, UniProt P51617)
Source text: as §1

KIT(L576P) = KIT(L576P) (Homo sapiens, UniProt P10721, L576P)
Chain of KIT(L576P) (P10721 whole entry L576P): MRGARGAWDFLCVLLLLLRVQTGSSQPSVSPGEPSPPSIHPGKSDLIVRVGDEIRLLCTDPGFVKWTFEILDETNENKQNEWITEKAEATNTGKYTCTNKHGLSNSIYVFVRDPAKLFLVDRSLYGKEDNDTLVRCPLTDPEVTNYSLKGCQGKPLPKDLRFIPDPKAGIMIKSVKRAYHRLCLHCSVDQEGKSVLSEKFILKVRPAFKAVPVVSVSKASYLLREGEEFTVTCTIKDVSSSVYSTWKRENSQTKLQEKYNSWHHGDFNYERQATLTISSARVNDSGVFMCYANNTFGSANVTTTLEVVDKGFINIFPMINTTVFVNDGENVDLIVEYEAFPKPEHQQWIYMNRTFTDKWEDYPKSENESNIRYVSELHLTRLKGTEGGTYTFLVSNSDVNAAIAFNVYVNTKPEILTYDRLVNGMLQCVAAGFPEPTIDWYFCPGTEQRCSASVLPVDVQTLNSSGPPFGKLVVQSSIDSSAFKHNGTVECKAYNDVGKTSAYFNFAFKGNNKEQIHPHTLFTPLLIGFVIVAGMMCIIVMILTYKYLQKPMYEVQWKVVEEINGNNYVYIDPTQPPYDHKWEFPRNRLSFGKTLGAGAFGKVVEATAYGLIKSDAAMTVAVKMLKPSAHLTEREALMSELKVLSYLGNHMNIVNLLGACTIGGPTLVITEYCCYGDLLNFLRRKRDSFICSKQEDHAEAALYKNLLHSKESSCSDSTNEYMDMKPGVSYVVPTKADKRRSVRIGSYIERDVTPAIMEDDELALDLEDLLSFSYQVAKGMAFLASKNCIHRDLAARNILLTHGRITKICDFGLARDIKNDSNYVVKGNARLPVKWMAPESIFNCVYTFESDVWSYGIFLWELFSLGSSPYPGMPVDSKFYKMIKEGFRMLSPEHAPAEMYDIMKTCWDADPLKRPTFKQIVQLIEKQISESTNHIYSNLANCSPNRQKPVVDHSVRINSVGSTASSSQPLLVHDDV
Source text: as §1

KIT(V559D,T670I) = KIT(V559D,T670I) (Homo sapiens, UniProt P10721, T670I/V559D)
Source text: as §1

LKB1 = target: T2, LKB1 (Homo sapiens, UniProt Q15831)
T2 construct: gene STK11
Source text: as §1

LZK = target: T3, LZK (Homo sapiens, UniProt O43283)
T3 construct: gene MAP3K13
Source text: as §1

MAP3K2 = MAP3K2 (Homo sapiens, UniProt Q9Y2U5)
Source text: as §1

MINK = target: T4, MINK (Homo sapiens, UniProt Q8N4C8)
T4 construct: gene MINK1
T4 sequence (Q8N4C8 whole entry): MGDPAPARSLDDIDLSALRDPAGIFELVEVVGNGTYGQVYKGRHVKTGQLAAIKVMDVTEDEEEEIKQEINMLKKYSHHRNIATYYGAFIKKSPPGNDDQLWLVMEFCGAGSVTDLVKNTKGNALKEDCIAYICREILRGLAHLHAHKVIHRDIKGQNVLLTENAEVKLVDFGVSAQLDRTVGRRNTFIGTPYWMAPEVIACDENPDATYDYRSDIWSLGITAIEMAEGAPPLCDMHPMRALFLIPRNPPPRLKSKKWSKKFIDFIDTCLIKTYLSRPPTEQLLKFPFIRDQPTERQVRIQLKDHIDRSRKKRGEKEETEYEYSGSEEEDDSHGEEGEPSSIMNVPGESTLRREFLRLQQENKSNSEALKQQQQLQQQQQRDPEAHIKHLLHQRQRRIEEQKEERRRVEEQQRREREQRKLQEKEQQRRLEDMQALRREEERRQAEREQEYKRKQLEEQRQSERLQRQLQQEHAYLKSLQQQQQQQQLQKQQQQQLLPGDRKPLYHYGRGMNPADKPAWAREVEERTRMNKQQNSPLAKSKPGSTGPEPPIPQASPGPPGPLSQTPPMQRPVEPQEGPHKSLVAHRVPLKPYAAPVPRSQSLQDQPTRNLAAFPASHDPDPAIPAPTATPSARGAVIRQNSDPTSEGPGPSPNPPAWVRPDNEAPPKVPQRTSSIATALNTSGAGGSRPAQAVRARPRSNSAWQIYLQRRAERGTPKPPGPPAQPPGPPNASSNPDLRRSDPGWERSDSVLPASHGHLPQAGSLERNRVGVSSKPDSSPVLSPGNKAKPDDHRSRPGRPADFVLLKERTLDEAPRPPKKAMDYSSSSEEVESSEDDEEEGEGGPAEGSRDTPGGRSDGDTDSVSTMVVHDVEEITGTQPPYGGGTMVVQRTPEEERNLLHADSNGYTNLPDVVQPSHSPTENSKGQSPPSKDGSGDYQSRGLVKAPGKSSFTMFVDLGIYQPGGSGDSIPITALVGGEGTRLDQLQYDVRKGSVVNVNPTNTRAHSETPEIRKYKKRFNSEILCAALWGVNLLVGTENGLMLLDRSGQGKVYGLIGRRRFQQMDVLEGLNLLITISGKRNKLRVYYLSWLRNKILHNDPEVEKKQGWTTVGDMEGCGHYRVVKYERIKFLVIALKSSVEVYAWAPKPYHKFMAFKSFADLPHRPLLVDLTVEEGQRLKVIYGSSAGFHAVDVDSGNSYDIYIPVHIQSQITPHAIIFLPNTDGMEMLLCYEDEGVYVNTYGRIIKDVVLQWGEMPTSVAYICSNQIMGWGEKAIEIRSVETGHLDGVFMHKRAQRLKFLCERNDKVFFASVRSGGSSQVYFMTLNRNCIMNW
Source text: as §1

MST1 = target: T5, MST1 (Homo sapiens, UniProt Q13043)
T5 construct: gene STK4
Source text: as §1

NDR1 = target: T6, NDR1 (Homo sapiens, UniProt Q15208)
T6 construct: gene STK38
T6 sequence (Q15208 whole entry): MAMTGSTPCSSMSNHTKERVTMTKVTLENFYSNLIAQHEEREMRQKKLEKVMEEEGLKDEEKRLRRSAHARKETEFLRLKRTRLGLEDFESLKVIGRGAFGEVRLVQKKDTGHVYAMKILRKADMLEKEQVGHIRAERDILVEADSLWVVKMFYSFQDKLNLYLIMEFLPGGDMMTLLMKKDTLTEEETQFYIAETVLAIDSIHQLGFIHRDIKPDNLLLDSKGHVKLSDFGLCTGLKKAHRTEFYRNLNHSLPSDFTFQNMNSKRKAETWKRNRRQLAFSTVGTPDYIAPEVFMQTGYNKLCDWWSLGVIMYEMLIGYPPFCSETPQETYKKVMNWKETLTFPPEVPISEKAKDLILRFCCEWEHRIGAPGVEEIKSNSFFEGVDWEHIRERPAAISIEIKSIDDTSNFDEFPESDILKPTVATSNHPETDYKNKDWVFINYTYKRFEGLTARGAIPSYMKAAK
Source text: as §1

PIM2 = PIM2 (Homo sapiens, UniProt Q9P1W9)
Chain of PIM2 (Q9P1W9 whole entry): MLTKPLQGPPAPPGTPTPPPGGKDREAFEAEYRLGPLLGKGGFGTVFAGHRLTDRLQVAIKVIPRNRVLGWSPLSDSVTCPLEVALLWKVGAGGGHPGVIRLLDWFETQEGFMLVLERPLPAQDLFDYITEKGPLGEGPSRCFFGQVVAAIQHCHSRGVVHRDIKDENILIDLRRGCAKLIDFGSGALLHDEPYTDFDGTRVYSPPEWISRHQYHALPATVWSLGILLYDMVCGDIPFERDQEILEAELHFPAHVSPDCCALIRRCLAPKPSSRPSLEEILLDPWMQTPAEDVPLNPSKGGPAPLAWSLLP
Source text: as §1

RAF1 = RAF1 (Homo sapiens, UniProt P04049)
Source text: as §1

TAOK3 = TAOK3 (Homo sapiens, UniProt Q9H2K8)
Source text: as §1

TNIK = TNIK (Homo sapiens, UniProt Q9UKE5)
Source text: as §1

WEE1 = WEE1 (Homo sapiens, UniProt P30291)
Source text: as §1

ZAK = target: T7, ZAK (Homo sapiens, UniProt Q9NYL2)
T7 construct: gene MAP3K20
Source text: as §1

p38-delta = target: T8, p38-delta (Homo sapiens, UniProt O15264)
T8 construct: gene MAPK13
Source text: as §1

Cn1c(=O)[nH]c2ccc(-c3cccc(C(=O)NC4CCn5ccnc5C4)c3)cc21 (stereo not drawn) [Z36-MP5]
remaining binding at 1 µM [1]: 83%
remaining binding at 1 µM (CAMK2G): 55%
remaining binding at 1 µM (CAMKK2): 51%
remaining binding at 1 µM (DAPK1): 99%
remaining binding at 1 µM [2]: 51%
remaining binding at 1 µM (EPHA1): 96%
remaining binding at 1 µM (EPHB6): 81%
remaining binding at 1 µM (FLT1): 95%
remaining binding at 1 µM (IRAK1): 80%
remaining binding at 1 µM (KIT(L576P)): 74%
remaining binding at 1 µM (KIT(V559D,T670I)): 86%
remaining binding at 1 µM (LKB1): 97%
remaining binding at 1 µM (LZK): 63%
remaining binding at 1 µM (MAP3K2): 65%
remaining binding at 1 µM (MINK): 69%
remaining binding at 1 µM (MST1): 84%
remaining binding at 1 µM (NDR1): 81%
remaining binding at 1 µM (PIM2): 91%
remaining binding at 1 µM (RAF1): 83%
remaining binding at 1 µM (TAOK3): 54%
remaining binding at 1 µM (TNIK): 98%
remaining binding at 1 µM (WEE1): 100%
remaining binding at 1 µM (ZAK): 95%
remaining binding at 1 µM (p38-delta): 98%
